Laboratory results taken from ChEMBL document CHEMBL1201862, “PubChem BioAssay data set” (2004).
Calls of active or inactive are those of the source.

Experiments:
Wee1-like protein kinase = Wee1-like protein kinase (Homo sapiens, UniProt P30291); experiment: G2/M cell cycle arrest in HeLa, late-stage follow-up, mechanism study for Wee1 degradation inhibitor project, FACS, panel member Wee1 Degradation (AID 2088)
[1] = molecular target: G2/mitotic-specific cyclin-B1 (Homo sapiens, UniProt P14635); experiment: G2/M cell cycle arrest in HeLa, late-stage follow-up, mechanism study for Wee1 degradation inhibitor project, FACS, panel member Cyclin B Degradation (AID 2088)
G2/mitotic-specific cyclin-B1, sequence (P14635 whole entry): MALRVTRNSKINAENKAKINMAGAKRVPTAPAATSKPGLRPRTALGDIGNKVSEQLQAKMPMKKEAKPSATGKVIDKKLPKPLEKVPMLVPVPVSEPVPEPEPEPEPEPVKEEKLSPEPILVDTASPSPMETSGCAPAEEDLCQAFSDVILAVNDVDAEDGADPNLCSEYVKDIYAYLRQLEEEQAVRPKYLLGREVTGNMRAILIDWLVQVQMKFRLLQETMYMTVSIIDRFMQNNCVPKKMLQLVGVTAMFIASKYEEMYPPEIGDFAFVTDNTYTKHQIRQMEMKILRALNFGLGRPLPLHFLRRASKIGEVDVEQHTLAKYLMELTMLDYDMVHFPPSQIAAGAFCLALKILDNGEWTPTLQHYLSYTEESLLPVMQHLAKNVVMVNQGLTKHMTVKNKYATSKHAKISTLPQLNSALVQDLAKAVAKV

Hexokinase HKDC1 [2] = molecular target: T1, Hexokinase HKDC1 (Homo sapiens, UniProt Q2TB90); experiment: HKDC1 hexokinase inhibitors, dose response, biochemical, W721R variant (AID 504729); assay type: functional
T1 sequence (Q2TB90 whole entry): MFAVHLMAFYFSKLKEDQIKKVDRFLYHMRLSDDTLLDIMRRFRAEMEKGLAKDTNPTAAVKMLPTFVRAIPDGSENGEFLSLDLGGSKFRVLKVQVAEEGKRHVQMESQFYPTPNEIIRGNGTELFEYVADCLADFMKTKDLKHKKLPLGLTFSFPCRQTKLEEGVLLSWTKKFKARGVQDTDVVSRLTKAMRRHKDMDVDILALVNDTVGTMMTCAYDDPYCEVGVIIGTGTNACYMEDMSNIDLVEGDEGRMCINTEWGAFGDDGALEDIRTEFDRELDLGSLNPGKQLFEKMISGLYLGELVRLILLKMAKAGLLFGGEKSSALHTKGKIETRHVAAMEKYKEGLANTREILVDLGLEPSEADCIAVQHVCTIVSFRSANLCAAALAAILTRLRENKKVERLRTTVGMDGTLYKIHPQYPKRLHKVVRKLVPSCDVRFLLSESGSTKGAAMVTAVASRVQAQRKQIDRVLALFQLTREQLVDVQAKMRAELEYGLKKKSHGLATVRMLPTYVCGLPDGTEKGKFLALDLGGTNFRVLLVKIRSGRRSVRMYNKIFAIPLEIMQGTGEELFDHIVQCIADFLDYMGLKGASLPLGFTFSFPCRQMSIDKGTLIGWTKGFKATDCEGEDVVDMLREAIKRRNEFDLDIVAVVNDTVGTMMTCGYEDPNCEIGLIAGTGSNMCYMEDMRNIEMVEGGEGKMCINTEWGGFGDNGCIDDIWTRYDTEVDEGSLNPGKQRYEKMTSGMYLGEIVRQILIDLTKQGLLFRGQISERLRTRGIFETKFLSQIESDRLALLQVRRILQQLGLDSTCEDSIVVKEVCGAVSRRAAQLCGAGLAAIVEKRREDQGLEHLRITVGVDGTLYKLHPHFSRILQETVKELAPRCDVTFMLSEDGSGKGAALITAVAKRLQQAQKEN

Hexokinase-1 = molecular target: T2, Hexokinase-1 (Homo sapiens, UniProt P19367); experiment: SAR analysis of small molecule inhibitors of hexokinase domain containing I (HKDC1) in the hexokinase 1 selectivity assay. [Related pubchem assays (depositor defined):AID493160, AID493190]; assay type: functional
T2 sequence (P19367 whole entry): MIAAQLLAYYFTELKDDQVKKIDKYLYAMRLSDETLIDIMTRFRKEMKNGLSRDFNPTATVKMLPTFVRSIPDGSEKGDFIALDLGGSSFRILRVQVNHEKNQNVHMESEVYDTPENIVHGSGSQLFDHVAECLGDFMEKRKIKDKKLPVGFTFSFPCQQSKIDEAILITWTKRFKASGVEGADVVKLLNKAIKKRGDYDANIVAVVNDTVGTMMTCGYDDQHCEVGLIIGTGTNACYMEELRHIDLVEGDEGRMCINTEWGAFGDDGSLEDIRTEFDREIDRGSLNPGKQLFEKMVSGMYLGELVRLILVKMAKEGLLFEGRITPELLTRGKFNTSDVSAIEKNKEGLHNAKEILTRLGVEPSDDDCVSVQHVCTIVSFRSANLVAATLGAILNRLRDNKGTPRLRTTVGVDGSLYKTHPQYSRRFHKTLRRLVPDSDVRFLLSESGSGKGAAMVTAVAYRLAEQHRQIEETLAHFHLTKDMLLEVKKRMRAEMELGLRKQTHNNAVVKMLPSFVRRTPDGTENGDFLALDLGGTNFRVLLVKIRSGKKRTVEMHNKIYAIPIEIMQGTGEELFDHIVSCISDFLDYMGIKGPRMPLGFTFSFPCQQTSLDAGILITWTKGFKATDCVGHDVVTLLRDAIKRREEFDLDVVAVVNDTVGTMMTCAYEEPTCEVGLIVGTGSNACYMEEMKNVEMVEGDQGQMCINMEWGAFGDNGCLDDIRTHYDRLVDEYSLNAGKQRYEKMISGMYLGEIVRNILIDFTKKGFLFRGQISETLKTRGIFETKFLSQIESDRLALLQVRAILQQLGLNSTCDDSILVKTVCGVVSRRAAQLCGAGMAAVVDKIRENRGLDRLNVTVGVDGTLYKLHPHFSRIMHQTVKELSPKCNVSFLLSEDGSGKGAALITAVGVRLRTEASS

Hexokinase HKDC1 [3] = molecular target: T1, Hexokinase HKDC1; experiment: SAR analysis of small molecule inhibitors of hexokinase domain containing I (HKDC1). [Related pubchem assays (depositor defined):AID493160, AID493190]; assay type: functional
X-box-binding protein 1 = X-box-binding protein 1 (Homo sapiens, UniProt P17861); assay type: functional, Cricetulus griseus;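 note: confirmatory dose-response counter-screen serving a CHOP assay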
X-box-binding protein 1, sequence (P17861 whole entry): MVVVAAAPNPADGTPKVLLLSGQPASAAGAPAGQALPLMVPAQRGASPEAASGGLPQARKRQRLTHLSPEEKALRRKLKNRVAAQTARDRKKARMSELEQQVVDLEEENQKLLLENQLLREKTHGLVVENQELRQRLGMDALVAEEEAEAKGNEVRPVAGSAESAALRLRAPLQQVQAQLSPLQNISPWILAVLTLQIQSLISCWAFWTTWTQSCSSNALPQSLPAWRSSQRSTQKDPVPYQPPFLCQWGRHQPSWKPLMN

Wee1-like protein kinase, sequence (P30291 whole entry): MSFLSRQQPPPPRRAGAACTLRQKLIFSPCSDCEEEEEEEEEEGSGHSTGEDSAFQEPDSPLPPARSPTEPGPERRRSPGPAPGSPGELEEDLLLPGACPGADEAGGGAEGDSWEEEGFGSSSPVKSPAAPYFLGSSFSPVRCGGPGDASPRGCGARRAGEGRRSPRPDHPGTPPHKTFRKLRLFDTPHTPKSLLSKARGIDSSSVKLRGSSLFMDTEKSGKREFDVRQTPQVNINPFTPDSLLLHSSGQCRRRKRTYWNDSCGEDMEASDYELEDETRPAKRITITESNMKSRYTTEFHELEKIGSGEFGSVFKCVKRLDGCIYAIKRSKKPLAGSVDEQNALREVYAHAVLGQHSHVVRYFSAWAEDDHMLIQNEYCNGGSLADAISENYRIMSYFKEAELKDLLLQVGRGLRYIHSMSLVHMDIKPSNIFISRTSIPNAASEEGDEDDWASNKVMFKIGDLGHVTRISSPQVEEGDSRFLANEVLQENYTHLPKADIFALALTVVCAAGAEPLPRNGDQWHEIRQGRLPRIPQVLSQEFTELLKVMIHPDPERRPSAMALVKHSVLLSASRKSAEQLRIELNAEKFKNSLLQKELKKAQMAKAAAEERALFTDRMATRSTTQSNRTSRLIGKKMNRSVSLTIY

Cn1c(=O)cc(OCCCC(=O)Nc2cccc(C(F)(F)F)c2)c2ccccc21 was tested, and the EC50 (Wee1-like protein kinase) was > 49.7 µM (inactive) and the EC50 [1] was > 49.7 µM (inactive).
In the case of Cc1cc2nnc(SCC(=O)Nc3cc(S(=O)(=O)N4CCOCC4)ccc3Cl)n2c2ccccc12, the IC50 (Hexokinase HKDC1 [2]) is reported as 3.16 µM (active), the IC50 (Hexokinase-1) is reported as 3.76 µM (active) and the IC50 (Hexokinase HKDC1 [3]) is reported as 3.39 µM (active).
With Cc1nn(-c2ccc(C(F)(F)F)cn2)c(C)c1Oc1ccccc1O the “Absolute IC50 (XBP1)” value (X-box-binding protein 1) was 10 µM.
